Format in all cases: functional
Assay [1] deals with Pseudomonas aeruginosa. Description: Bactericidal activity against Pseudomonas aeruginosa PAO1 in Luria-Bertani broth by microdilution method. Background: Dilution methods test growth across graded concentrations, often in twofold steps.
The subject of assay [2] is Pseudomonas aeruginosa. Put plainly: Antipseudomonal activity against Pseudomonas aeruginosa PAO1 in Pseudomonas isolation agar assessed as bacterial growth inhibition at 10 uM by disk diffusion assay. The note with it: read-out: DIZ. A general note: Agar diffusion results depend on both activity and mobility in agar.
The test system of assay [3] is Pseudomonas aeruginosa. Put plainly: Antipseudomonal activity against Pseudomonas aeruginosa PAO1 in Luria-Bertani agar assessed as bacterial growth inhibition at 10 uM by disk diffusion assay. The note with it: read-out: DIZ.
Assay [4] deals with Pseudomonas aeruginosa. Description: Antipseudomonal activity against Pseudomonas aeruginosa PAO581 in Luria-Bertani agar assessed as bacterial growth inhibition at 10 uM by disk diffusion assay. To be noted: read-out: DIZ.
The subject of assay [5] is Pseudomonas aeruginosa. Description: Antipseudomonal activity against Pseudomonas aeruginosa PAO581 in Pseudomonas isolation agar assessed as bacterial growth inhibition at 10 uM by disk diffusion assay. The note with it: read-out: DIZ.
Assay [6] has as its system Pseudomonas aeruginosa. Description: Antipseudomonal activity against Pseudomonas aeruginosa PAO581 in Luria-Bertani broth by microdilution method.
Assay [7] has as its system Pseudomonas aeruginosa. Description: Antipseudomonal activity against Pseudomonas aeruginosa PAO1 in Luria-Bertani broth by microdilution method.
Assay [8] deals with Pseudomonas aeruginosa. Put plainly: Bactericidal activity against Pseudomonas aeruginosa PAO581 in Luria-Bertani broth by microdilution method.
The test system of assay [9] is Pseudomonas aeruginosa. Description: Antipseudomonal activity against Pseudomonas aeruginosa PAO1 in Pseudomonas isolation agar assessed as reduction in inhibitory zone size at 10 uM by disk diffusion assay relative to Luria-Bertani agar. On the set-up: scale not given: the % may be the effect or the level left.
The subject of assay [10] is Pseudomonas aeruginosa. Put plainly: Antipseudomonal activity against Pseudomonas aeruginosa PAO581 in Pseudomonas isolation agar assessed as reduction in inhibitory zone size at 10 uM by disk diffusion assay relative to Luria-Bertani agar. Set-up: scale not given: the % may be the effect or the level left.

Molecules are shown by their SMILES. Converted amounts (≈) assume the structure as drawn.

As usually defined, the MBC is the lowest tested concentration that kills the bacteria rather than only halting them. The MIC is the lowest concentration found to suppress growth. For the molecule `O=CN1CCN(c2cc3c(cc2F)c(=O)c(C(=O)O)cn3C2CC2)CC1`, the minimum bactericidal concentration (MBC) against Pseudomonas aeruginosa [1] and against Pseudomonas aeruginosa [8] was 6.25 µM (≈ 2.25 µg/mL) each time. Also, the zone of inhibition at 10 µM was 20 mm with Pseudomonas aeruginosa [2], 18 mm in the assay with Pseudomonas aeruginosa [3], 21 mm with Pseudomonas aeruginosa [4] and 9 mm in the assay with Pseudomonas aeruginosa [5]. Besides, the MIC against Pseudomonas aeruginosa [6] and in the assay on Pseudomonas aeruginosa [7] was 3.12 µM (≈ 1.12 µg/mL) in each case.
On to `O=C(O)CCC(=O)N1CCN(c2cc3c(cc2F)c(=O)c(C(=O)O)cn3C2CC2)CC1`, for which the zone of inhibition at 10 µM in the assay with Pseudomonas aeruginosa [2], in the assay with Pseudomonas aeruginosa [3], in the assay with Pseudomonas aeruginosa [4] and in the assay on Pseudomonas aeruginosa [5] was 0 mm each time.
`CCn1cc(C(=O)O)c(=O)c2cc(F)c(N3CCN(C(C)=O)C(C)C3)c(F)c21` (stereo unspecified): the zone of inhibition at 10 µM with Pseudomonas aeruginosa [2], in the assay on Pseudomonas aeruginosa [3], in the assay on Pseudomonas aeruginosa [4] and in the assay with Pseudomonas aeruginosa [5] was 0 mm in each case.
Regarding `O=C([O-])c1ccccc1C(=O)N1CCN(c2cc3c(cc2F)c(=O)c(C(=O)[O-])cn3C2CC2)CC1.[K+].[K+]`, the figures for the minimal bactericidal concentration (MBC) in the assay with Pseudomonas aeruginosa [1] and in the assay on Pseudomonas aeruginosa [8] were 6.25 µM and 12.5 µM, respectively. The zone of inhibition at 10 µM in the assay with Pseudomonas aeruginosa [2] stood at 11 mm; in the assay on Pseudomonas aeruginosa [3], 23 mm; with Pseudomonas aeruginosa [4] it was 31 mm; in the assay with Pseudomonas aeruginosa [5], 13 mm. Further, the Activity in the assay on Pseudomonas aeruginosa [9] worked out at 53%; in the assay on Pseudomonas aeruginosa [10], 58%. In addition, the MIC with Pseudomonas aeruginosa [6] and against Pseudomonas aeruginosa [7] was 3.12 µM in each case.
On to `CCn1cc(C(=O)O)c(=O)c2cc(F)c(N3CCN(C)CC3)cc21`, for which the zone of inhibition at 10 µM turned out to be 12 mm in the assay on Pseudomonas aeruginosa [2], 18 mm in the assay on Pseudomonas aeruginosa [3], 19 mm in the assay with Pseudomonas aeruginosa [4] and 14 mm in the assay on Pseudomonas aeruginosa [5].
`CC(=O)N1CCN(c2cc3c(cc2F)c(=O)c(C(=O)O)cn3C2CC2)CC1`: the zone of inhibition at 10 µM in the assay with Pseudomonas aeruginosa [2] was determined as 0 mm; in the assay with Pseudomonas aeruginosa [3], 10 mm; with Pseudomonas aeruginosa [4] it was 0 mm; with Pseudomonas aeruginosa [5], 13 mm.
As for `COC(=O)CN1CCN(c2cc3c(cc2F)c(=O)c(C(=O)O)cn3C2CC2)CC1`, the zone of inhibition at 10 µM in the assay on Pseudomonas aeruginosa [2], with Pseudomonas aeruginosa [3], in the assay on Pseudomonas aeruginosa [4] and with Pseudomonas aeruginosa [5] was 0 mm each time.
On to `O=C(O)c1cn(C2CC2)c2cc(N3CCN(Cc4ccccc4)CC3)c(F)cc2c1=O`, for which the zone of inhibition at 10 µM with Pseudomonas aeruginosa [2] was found to be 0 mm; in the assay with Pseudomonas aeruginosa [3], 0 mm; in the assay on Pseudomonas aeruginosa [4] it was 13 mm; in the assay with Pseudomonas aeruginosa [5] it was 0 mm.
With `CCCCCCN1CCN(c2cc3c(cc2F)c(=O)c(C(=O)O)cn3C2CC2)CC1`, the zone of inhibition at 10 µM in the assay on Pseudomonas aeruginosa [2], with Pseudomonas aeruginosa [3], in the assay on Pseudomonas aeruginosa [4] and in the assay with Pseudomonas aeruginosa [5] was 0 mm throughout.
With `O=C(O)CN1CCN(c2cc3c(cc2F)c(=O)c(C(=O)O)cn3C2CC2)CC1`, the zone of inhibition at 10 µM in the assay on Pseudomonas aeruginosa [2], in the assay with Pseudomonas aeruginosa [3], with Pseudomonas aeruginosa [4] and in the assay with Pseudomonas aeruginosa [5] was 0 mm each time.
As for `NC[C@H]1O[C@H](O[C@H]2[C@H](O)[C@@H](O[C@H]3O[C@H](CO)[C@@H](O)[C@H](N)[C@H]3O)[C@H](N)C[C@@H]2N)[C@H](N)C[C@@H]1O`, the minimum bactericidal concentration (MBC) came out at 1.56 µM (≈ 0.729 µg/mL) with Pseudomonas aeruginosa [1] and 6.25 µM (≈ 2.92 µg/mL) against Pseudomonas aeruginosa [8]. Further, the zone of inhibition at 10 µM with Pseudomonas aeruginosa [2] is 13 mm; with Pseudomonas aeruginosa [3], 18 mm; with Pseudomonas aeruginosa [4], 20 mm; with Pseudomonas aeruginosa [5], 17 mm. Moreover, the MIC in the assay with Pseudomonas aeruginosa [6] was 0.78 µM (≈ 0.365 µg/mL); in the assay on Pseudomonas aeruginosa [7], 3.12 µM (≈ 1.46 µg/mL).
With `COc1c(N2CCNC(C)C2)c(F)cc2c(=O)c(C(=O)O)cn(C3CC3)c12` (stereo unspecified), the zone of inhibition at 10 µM in the assay on Pseudomonas aeruginosa [2] was 21 mm; with Pseudomonas aeruginosa [3], 29 mm; in the assay on Pseudomonas aeruginosa [4] it was 31 mm; with Pseudomonas aeruginosa [5] it was 23 mm.
The matching figures for `CCCCN1CCN(c2cc3c(cc2F)c(=O)c(C(=O)O)cn3C2CC2)CC1`: 0 mm, 23 mm, 13 mm and 0 mm.
Turning to `O=C([O-])c1cn(C2CC2)c2cc(N3CCNCC3)c(F)cc2c1=O.[K+]`, the MBC against Pseudomonas aeruginosa [1] and in the assay with Pseudomonas aeruginosa [8] was 6.25 µM in each case. Further, the zone of inhibition at 10 µM in the assay on Pseudomonas aeruginosa [2] was 24 mm; in the assay on Pseudomonas aeruginosa [3], 30 mm; with Pseudomonas aeruginosa [4], 38 mm; with Pseudomonas aeruginosa [5], 26 mm. The Activity was found to be 20% with Pseudomonas aeruginosa [9] and 32% in the assay with Pseudomonas aeruginosa [10]. Also, the minimum inhibitory concentration (MIC) against Pseudomonas aeruginosa [6] and with Pseudomonas aeruginosa [7] was 1.56 µM in each case.
As to `C[C@H]1COc2c(C3(N)CC3)c(F)cc3c(=O)c(C(=O)O)cn1c23`, the zone of inhibition at 10 µM in the assay on Pseudomonas aeruginosa [2] was found to be 17 mm; in the assay on Pseudomonas aeruginosa [3], 25 mm; with Pseudomonas aeruginosa [4], 30 mm; in the assay on Pseudomonas aeruginosa [5] it was 20 mm.
For `COc1c(N2CCN(C(C)=O)C(C)C2)c(F)cc2c(=O)c(C(=O)O)cn(C3CC3)c12` (stereo unspecified) the same measures were 0 mm, 0 mm, 0 mm and 0 mm.
The matching figures for `CC1(C)S[C@@H]2[C@H](NC(=O)[C@H](C(=O)O)c3ccsc3)C(=O)N2[C@H]1C(=O)O`: 0 mm, 0 mm, 0 mm and 0 mm.
For `O=C(O)CCCC(=O)N1CCN(c2cc3c(cc2F)c(=O)c(C(=O)O)cn3C2CC2)CC1` the same measures were 0 mm, 0 mm, 0 mm and 0 mm.
`CCn1cc(C(=O)O)c(=O)c2cc(F)c(N3CCNC(C)C3)c(F)c21` (stereo unspecified): the zone of inhibition at 10 µM with Pseudomonas aeruginosa [2] is 12 mm; in the assay on Pseudomonas aeruginosa [3], 23 mm; in the assay with Pseudomonas aeruginosa [4], 29 mm; in the assay with Pseudomonas aeruginosa [5], 15 mm.
The matching figures for `COc1c(N2C[C@@H]3CCCN[C@@H]3C2)c(F)cc2c(=O)c(C(=O)O)cn(C3CC3)c12`: 10 mm, 24 mm, 31 mm and 14 mm.
The matching figures for `COC(=O)CCCN1CCN(c2cc3c(cc2F)c(=O)c(C(=O)O)cn3C2CC2)CC1`: 6 mm, 16 mm, 17 mm and 9 mm.
The matching figures for `COc1c(N2C[C@@H]3CCCN(C(C)=O)[C@@H]3C2)c(F)cc2c(=O)c(C(=O)O)cn(C3CC3)c12`: 0 mm, 0 mm, 0 mm and 0 mm.
On to `CC(=O)NC1(c2c(F)cc3c(=O)c(C(=O)O)cn4c3c2OC[C@@H]4C)CC1`, for which the zone of inhibition at 10 µM with Pseudomonas aeruginosa [2], with Pseudomonas aeruginosa [3], with Pseudomonas aeruginosa [4] and with Pseudomonas aeruginosa [5] was 0 mm each time.
`O=C(O)CCCN1CCN(c2cc3c(cc2F)c(=O)c(C(=O)O)cn3C2CC2)CC1`: the zone of inhibition at 10 µM in the assay with Pseudomonas aeruginosa [2], in the assay with Pseudomonas aeruginosa [3], in the assay with Pseudomonas aeruginosa [4] and with Pseudomonas aeruginosa [5] was 0 mm in each case.
